Read-outs that look alike come from different tables or passages of the source.
Legend:
[1] = dissolved in water; cited from earlier work
[2] = cited from earlier work
[3] = unformulated active agent, in practice; cited from earlier work
[4] = Bioavailability of coenzyme Q10; type: in vivo; settings: oral administration, solubilised with poloxamer and resin or tocopherol by this method
[5] = pH 5; cited from earlier work

Compound: O=C1O[C@H]([C@@H](O)CO)C(O)=C1O [Vitamin C, ascorbic acid]
- time until solution in water becomes light yellow [1]: 2 to 3 days

Compound: COC1=C(OC)C(=O)C(C/C=C(\C)CC/C=C(\C)CC/C=C(\C)CC/C=C(\C)CC/C=C(\C)CC/C=C(\C)CC/C=C(\C)CC/C=C(\C)CC/C=C(\C)CCC=C(C)C)=C(C)C1=O [coenzyme Q10]
- solubility in water [2]: not water-soluble
- bioavailability [3]: 10%
- bioavailability [4]: about 85%

Compound: Abamectin
- stability against hydrolysis in aqueous solutions [5]: stable

— US8703195B2, “Method for solubilising, dispersing and stabilising of substances, products manufactured according to the method as well as the use thereof” (Biorem AG, priority 2006, dated 2014)
